# Laboratory results: US20040022827A1, “Remedy for hepatopathy” (CHUGAI SEIYAKU KABUSIKI KAISHA, priority 1997, published 2004)
# Columns and labels:
# [1] = tested on: Rat Model of Hepatic Insufficiency due to 90% Hepatectomy; assay: Rat model of hepatic insufficiency due to 90% hepatectomy; format: in vivo
# Source text: Crj: Donryu male rats aged 8-9 weeks and weighing 250 g or so were used. During the experiment, the rats were given a dedicated feed MF (product of Oriental Yeast) and water ad libitum. After 12-h fasting, the rats were anesthetized with ether and a catheter was inserted into the right cervical vein of each animal and retained in the central vein. Subsequently, the rats were underwent 90% hepatectomy according to the method of Gaub et al. (J. Gaub et al., Hepatology, 4, 902-904, 1984). The catheter in the central vein was passed under the skin to connect the blade bones, fitted with a harness, passed through a protective coil and connected to a swivel (Bio-Cannula of Biomedica). The rats were transferred into a metabolic cage and subjected to the experiment under a non-anesthetized and unconstrained condition. The experimental fluids were administered constantly with the pumping speed set at 100 mL/kg/day. Immediately after the hepatectomy, 3 mL of a 20% glucose solution was administered to the rats subcutaneously; for 3 days after the hepatectomy, the rats were allowed to drink a 10% glucose solution and thereafter tap water. The experimental fluids were administered for 4 or 6 days. The treated groups were two, on being a control group administered with a lactated Ringer's injection [Lactec (registered trademark) of Otuka Seiyaku] and the other being an L-val group administered with valine (L-valine added to lactated Ringer's injection to a concentration of 16.88 g/L). A non-treated (NT) group was also set. After the end of the administration of the experimental fluids, the rats were anesthetized with ether and blood was taken from the abdominal aorta; thereafter, autopsy was done to collect liver samples.
# [2] = tested on: Rat Model of Glactosamine-Induced Acute Hepatopathy; assay: Rat model of galactosamine-induced acute hepatopathy; format: in vivo; conditions: experimental fluids administered for one day; L-valine 16.88 g/L in lactated Ringer's, 100 mL/kg/day iv; mean ± SD
# Protocol: (§1) Crj: Donryu male rats aged 8-9 weeks and weighing 250 g or so were used. During the experiment, the rats were given a dedicated feed MF (product of Oriental Yeast) and water ad libitum. D-Galactosamine HCl (product of Sigma) was dissolved in physiological saline, adjusted to pH 7.0 with 1 N NaOH and used as a solution containing 100 mg of D-galactosamine (hereinafter referred to simply as “galactosamine”) per milliliter. Carbon tetrachloride (product of Wako Pure Chemical Industries) was used as a 50% (v/v) solution in olive oil (product of Wako Pure Chemical Industries). After 12-h fasting, the rats were administered intraperitoneally with galactosamine in a volume of 10 mL/kg or subcutaneously with the carbon tetrachloride solution at a volume of 4 mL/kg to induce hepatopathy. Immediately after the administration, the rats were anesthetized with ether and a catheter was inserted into the right cervical vein of each animal and retained in the central vein. The catheter in the central vein was passed under the skin to connect the blade bones, fitted with a harness, passed through a protective coil and connected to a swivel (Bio-Cannula of Biomedica). The rats were transferred into a metabolic cage and subjected to the experiment under a non-anesthetized and unconstrained condition. The experimental fluids were administered constantly with the pumping speed set at 100 mL/kg/day. The experimental fluids were administered for 1-4 days. The treated groups were two, one being a control group administered with a lactated Ringer's injection [[…] (registered trademark) of Otuka Seiyaku] and the other being an L-Val group administered with valine (L-valine added to lactated Ringer's injection to a concentration of 16.88 g/L). A non-treated (NT) group was also set. After the end of administration of the experimental fluids, the rats were anesthetized with ether and blood was taken from the abdominal aorta; thereafter, autopsy was done to collect liver samples.
# [3] = tested on: Rat Model of CCl4-Induced Chronic Hepatopathy; assay: Rat model of CCl4-induced chronic hepatopathy; format: in vivo; conditions: feed with 3 wt % L-valine for 14 weeks
# Protocol: Crj: Donryu male rats aged 8-9 weeks were used. During the experiment, the rats were given a dedicated feed MF (product of Oriental Yeast) and water ad libitum. Carbon tetrachloride (product of Wako Pure Chemical Industries) was dissolved in olive oil (product of Wako Pure Chemical Industries) to prepare a 50% (v/v) solution, which was administered subcutaneously to the rats for 14 weeks on a twice-a-week basis (to give 28 shots), each time at a dose of 2 mL/kg, thereby preparing models of chronic hepatopathy. During the 14-week experiment, the rats were given an experimental feed which was a dedicated feed MF; this was given as such to the control group and as a mixture with 3 wt % L-valine to the L-val group. A non-treated (NT) group was also set. After the end of the 14-week experiment, the rats were anesthetized with ether and blood was taken from the abdominal aorta; thereafter, autopsy was done to collect liver samples.
# [4] = tested on: Patient with chronic hepatitis C; assay: Peroral L-valine in patient with chronic hepatitis C; format: in vivo, human; conditions: 4-month period after start of oral L-valine 1 g three times a day; mean±SD of four monthly tests
# Source text: Patient ([…]) with chronic hepatitis C was given oral administration of L-valine on a three-times-a-day basis, with one gram at each time. The average GOT and GPT levels of the patient for a 4-month period before the administration of L-valine were 89.0±21.9 IU/L and 91.5±23.1 IU/L, respectively, in terms of mean±SD obtained by four tests on a monthly basis. The average GOT and GPT levels for a 4-month-period after the start of valine administration were 68.3±20.4 IU/L and 73.0±24.3 IU/L, respectively, in terms of mean±SD obtained by four tests on a monthly basis; thus, significant (p<0.05 in t-test) decreases were observed. An ameliorating effect was also observed in platelet counts; the average platelet count for a 6-month period before the administration of L-valine was 15.7±1.7 (×10^4) in terms of mean±SD obtained by four tests on a monthly or bimonthly basis, whereas the average platelet count for a 4-month period after the start of valine administration was 20.4±0.9 (×104) in terms of mean±SD obtained by four tests on a monthly basis; thus, a significant (p<0.01 in t-test) increase was observed. It was therefore clear that L-valine is also effective in patients with chronic hepatitis.
# [5] = tested on: Rat Model of CC14-Induced Acute Hepatopathy; assay: Rat model of carbon tetrachloride-induced acute hepatopathy; format: in vivo; conditions: experimental fluids administered for two days; L-valine 16.88 g/L in lactated Ringer's, 100 mL/kg/day iv; mean ± SD
# Protocol: as §1
# [6] = experimental fluids administered for four days, mean ± SD
# [7] = experimental fluids administered for six days, 20 animals
smiles,measurement,setting,value
"CC(C)[C@H](N)C(=O)O [L-Val, L-valine]",Alb,[1]; [6],1.8 ± 0.2 g/dL
same,Fischer ratio BCAA/AAA,[1]; [6],3.33 ± 1.11
same,GOT,[1]; [6],402.3 ± 302.4 IU/l
same,GPT,[1]; [6],134.9 ± 76.3 IU/l
same,TP,[1]; [6],3.6 ± 0.5 g/dL
same,No. of deaths,[1]; [7],1
same,No. of viable cases,[1]; [7],19
same,Viability,"[1]; experimental fluids administered for six days, 20 animals, P < 0.01 vs control",95%
same,Alb,[2],2.5 ± 0.1 g/dL
same,Fischer ratio BCAA/AAA,[2],6.42 ± 0.40
same,GOT,[2],760.2 ± 215.4 IU/1
same,GPT,[2],415.7 ± 180.8 IU/1
same,LDH,[2],973.7 ± 362.0 IU/1
same,TP,[2],4.9 ± 0.3 g/dL
same,No. of deaths,[3]; 10 animals,0
same,No. of viable cases,[3]; 10 animals,10
same,Retention of ascites (No. of cases),[3]; 10 animals,1
same,Retention of pleural effusion (No. of cases),[3]; 10 animals,0
same,Fischer ratio BCAA/AAA,[3]; mean ± SD,3.17 ± 0.96
same,average GOT level,[4],68.3±20.4 IU/L
same,average GPT level,[4],73.0±24.3 IU/L
same,average platelet count,[4],20.4±0.9 ×104
same,Fischer ratio BCAA/AAA,[5],4.32 ± 1.74
same,GOT,[5],3241.9 ± 2567.2 IU/1
same,GPT,[5],1951.2 ± 1730.9 IU/l
same,LDH,[5],3040.1 ± 4163.3 IU/l
same,TP,[5],5.1 ± 0.4 g/dL
